One assay has as its system human CD34+ cells. In words: Expansion of human CD34+ cells (EC50, CD34+CD45RA- cell count). Conditions: concentration that results in a 50% increase in CD34+CD45RA- cell count compared to vehicle cultures (DMSO); for EC50: Homo sapiens, read-out: Biological data (EC50)*. The class given is cell-based.
The next assay relates to human CD34+ CB cells. The class given is cell-based. Particulars: for gene transfer efficiency to human CD34+ CB cells and CD34+ subsets, variants of Cmpd1: prestimulated 16 hours and transduced 6 hours in presence of compound, FACS after 3 additional days (FIGS. 16A, 16B). As for the experimental part:
The cells were then exposed for 6 hours to a GFP lentiviral vector (10^6 iu/mL) in the same medium. […] At the end of the culture media, cells were harvested, stained for CD34 and analysed by flow cytometry.
The vector constructs were sequence-verified. […] Virus-containing supernatants were concentrated by ultracentrifugation to achieve titers of 0.5×10^9 to 5×10^9 infectious units/ml. Viral titers were determined by transducing HeLa cells with three dilutions of the lentiviral vector.
Umbilical cord blood (CB) and mobilized peripheral blood (mPB) cells were collected with consent according to procedures approved by the Research Ethics Board of the University of British Columbia. CD34^+ enriched adult bone marrow cells were purchased from […] Technologies. CD34^+ CB and mPB cells were enriched to >90% purity using first RosetteSep™ CD34 preenrichment cocktail ([…] Technologies) followed by positive selection using magnetic beads (EasySep kit, […] Technologies). In some cases additional enrichment was done by sorting CD34^+ cells using an Influx II sorter (BD Bioscience). […] All flow cytometric analysis was performed using a LSRII Fortessa® (BD Biosciences).

Assay [1] concerns macaque umbilical cord blood CD34+ cells. Conditions: after transplantation of co-cultured macaque cord blood CD34+ cells.

Regarding `COC(=O)c1ccc2c(c1)[nH]c1nc(Cc3ccccc3)nc(N(C)CCCN3CCCCC3)c12` [Cmpd 3], in the assay with human CD34+ cells, the EC50 is below 100 nM. In addition, in the assay on human CD34+ CB cells, the “gene transfer efficiency to human CD34+ CB cells and CD34+ subsets, variants of Cmpd1” value (“gene transfer efficiency” below) is on record as “increase gene transfer efficiency”. The like results for `COC(=O)c1ccc2c(c1)[nH]c1nc(Cc3cccc(F)c3)nc(NCCCN3CCCCC3)c12` [Cmpd 4] were, in that order, below 100 nM and “increase gene transfer efficiency”. `CN(CCCNC(=O)CNC(=O)CNC(=O)CN)CCCNc1nc(Cc2ccccc2)nc2[nH]c3cc(-c4nnn(C)n4)ccc3c12` [Cmpd 5, 2-amino-N-(2-((2-((3-((3-((2-benzyl-7-(2-methyl-2H-tetrazol-5-yl)-9H-pyrimido[4,5-b]indol-4-yl)amino)propyl)(methyl)amino)propyl)amino)-2-oxoethyl)amino)-2-oxoethyl)acetamide]: the EC50 in the assay with human CD34+ cells lay within 250 to 500 nM. Further, the “gene transfer efficiency” value in the assay on human CD34+ CB cells is given as “increase gene transfer efficiency”.

On to `COC(=O)c1ccc2c(c1)[nH]c1nc(Cc3ccccc3)nc(SCCCN3CCCCC3)c12` [Cmpd 6, methyl 2-benzyl-4-((3-(piperidin-1-yl)propyl)thio)-9H-pyrimido[4,5-b]indole-7-carboxylate], for which the EC50 in the assay on human CD34+ cells lay within 250 to 500 nM. The “gene transfer efficiency” value with human CD34+ CB cells is on record as “increase gene transfer efficiency”. Consider `CCCOC(=O)c1ccc2c(c1)[nH]c1ncnc(NCCCN3CCCCC3)c12` [Cmpd 7, propyl 4-((3-(piperidin-1-yl)propyl)amino)-9H-pyrimido[4,5-b]indole-7-carboxylate], for which the EC50 in the assay with human CD34+ cells is above 1000 nM. Moreover, the “gene transfer efficiency” value in the assay on human CD34+ CB cells is “not observed”. For the compound `COC(=O)c1ccc2c(c1)[nH]c1nc(-c3ccccc3)nc(NCCCN3CCCCC3)c12` [Cmpd 8, methyl 2-phenyl-4-((3-(piperidin-1-yl)propyl)amino)-9H-pyrimido[4,5-b]indole-7-carboxylate 2,2,2-trifluoroacetate], the “Biological data (EC50)*” value with human CD34+ cells is “inactive”. In the assay on human CD34+ CB cells, the “gene transfer efficiency” value is “not observed”. `COC(=O)c1ccc2c(c1)[nH]c1cc(Cc3cccc(OC)c3)nc(NCCCCN3CCCC3)c12` [Cmpd 81]: the EC50 in the assay with human CD34+ cells is below 100 nM. For the compound `COC(=O)c1ccc2c(c1)[nH]c1cc(Cc3cccc(O)c3)nc(NCCCCN3CCCC3)c12` [Cmpd 82], the EC50 in the assay with human CD34+ cells was below 100 nM. For the compound `COC(=O)c1ccc2c(c1)[nH]c1cc(Cc3ccsc3)nc(NCCN(C)CCNC(=O)OC(C)(C)C)c12` [Cmpd 83], the EC50 in the assay with human CD34+ cells was above 1000 nM.

With `COC(=O)c1ccc2c(c1)[nH]c1cc(Cc3cccnc3)nc(NCCCN3CCOCC3)c12` [Cmpd 84], in the assay with human CD34+ cells, the EC50 lay in the range of 500 to 1000 nM.

In the case of `COC(=O)c1ccc2c(c1)[nH]c1cc(Cc3ccsc3)nc(NCCCN3CCCCC3)c12` [Cmpd 85], the EC50 with human CD34+ cells fell in the range of 100 to 250 nM.

In the case of `COC(=O)c1ccc2c(c1)[nH]c1cc(Cc3cccnc3)nc(N3CCC(N4CCCC4)CC3)c12` [Cmpd 86], the EC50 in the assay with human CD34+ cells is above 1000 nM.

Regarding `CNCCCN(C)c1nc(Cc2cccnc2)cc2[nH]c3cc(C(=O)OC)ccc3c12` [Cmpd 87], the EC50 in the assay with human CD34+ cells is above 1000 nM. Take `COC(=O)c1ccc2c(c1)[nH]c1cc(Cc3ccsc3)nc(N[C@H]3CC[C@H](N)CC3)c12` [Cmpd 88]: the EC50 with human CD34+ cells fell in the range of 100 to 250 nM. Same read-out and setting: in the case of `COC(=O)c1ccc2c(c1)[nH]c1cc(Cc3ccsc3)nc(NCCN(C)CCN)c12` [Cmpd 89] it was 250 to 500 nM. For `CC(C)n1cnc2c(NCCc3ccc(O)cc3)nc(-c3csc4ccccc34)nc21` [SR1, StemRegenin 1, reference compound], the “enhancement of lentiviral-mediated gene transfer (in words)” value in the assay with human CD34+ CB cells (SR1 0.75 μM, assessed 3 days post-infection on CD34+ cells from cord blood) is on record as “not observed”. Moreover, the “proportion of primate CD45+ cells in the blood of transplanted mice” value in assay [1] is recorded as “not obtained”.

The record behind these values is patent US10273503B2, “Compounds and methods for enhancing viral gene transfer to human hematopoietic cells” (UNIVERSTÉ DE MONTRÉAL, priority 2015, dated 2019).
